Experiments:
[1] = target: Angiopoietin-1 receptor (Homo sapiens) (UniProt Q02763); assay: Inhibition of TIE2 (unknown origin) assessed as remaining activity at 10 uM by high-throughput assay relative to control
[2] = target: Inhibitor of nuclear factor kappa-B kinase subunit alpha (Homo sapiens) (UniProt O15111); assay: Inhibition of IKK-alpha (unknown origin) assessed as remaining activity at 10 uM by high-throughput assay relative to control
[3] = target: Activin receptor type-1B (Homo sapiens) (UniProt P36896); assay: Inhibition of ACVR1B (unknown origin) assessed as remaining activity at 10 uM by high-throughput assay relative to control
[4] = target: RAF proto-oncogene serine/threonine-protein kinase (Homo sapiens) (UniProt P04049); assay: Inhibition of RAF1 (unknown origin) assessed as remaining activity at 10 uM by high-throughput assay relative to control
[5] = target: 3-phosphoinositide-dependent protein kinase 1 (Homo sapiens) (UniProt O15530); assay: Inhibition of PDPK1 (unknown origin) assessed as remaining activity at 10 uM by high-throughput assay relative to control
[6] = target: Ribosomal protein S6 kinase alpha-3 (Homo sapiens) (UniProt P51812); assay: Inhibition of RSK2 Kin.Dom1.1-N-terminal (unknown origin) assessed as remaining activity at 10 uM by high-throughput assay relative to control
[7] = target: Platelet-derived growth factor receptor alpha (Homo sapiens) (UniProt P16234); assay: Inhibition of PDGFRA (unknown origin) assessed as remaining activity at 10 uM by high-throughput assay relative to control
[8] = target: Dual specificity tyrosine-phosphorylation-regulated kinase 1B (Homo sapiens) (UniProt Q9Y463); assay: Inhibition of DYRK1B (unknown origin) assessed as remaining activity at 10 uM by high-throughput assay relative to control
[9] = target: Serine/threonine-protein kinase DCLK1 (Homo sapiens) (UniProt O15075); assay: Inhibition of DCAMKL1 (unknown origin) assessed as remaining activity at 10 uM by high-throughput assay relative to control
[10] = target: Serine/threonine-protein kinase pim-2 (Homo sapiens) (UniProt Q9P1W9); assay: Inhibition of PIM2 (unknown origin) assessed as remaining activity at 10 uM by high-throughput assay relative to control
Sequence of Serine/threonine-protein kinase pim-2 (Homo sapiens) (Q9P1W9 whole entry, looked up): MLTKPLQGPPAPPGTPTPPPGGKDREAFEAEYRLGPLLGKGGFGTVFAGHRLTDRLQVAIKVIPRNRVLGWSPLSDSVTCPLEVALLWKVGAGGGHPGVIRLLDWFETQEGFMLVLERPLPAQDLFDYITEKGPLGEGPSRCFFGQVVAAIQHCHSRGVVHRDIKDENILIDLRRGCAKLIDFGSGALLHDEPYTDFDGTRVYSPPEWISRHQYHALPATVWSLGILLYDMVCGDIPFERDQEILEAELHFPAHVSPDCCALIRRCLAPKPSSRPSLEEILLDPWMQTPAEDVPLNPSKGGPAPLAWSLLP

[11] = target: Serine/threonine-protein kinase PAK 1 (Homo sapiens) (UniProt Q13153); assay: Inhibition of PAK1 (unknown origin) assessed as remaining activity at 10 uM by high-throughput assay relative to control
Sequence of Serine/threonine-protein kinase PAK 1 (Homo sapiens) (Q13153 whole entry): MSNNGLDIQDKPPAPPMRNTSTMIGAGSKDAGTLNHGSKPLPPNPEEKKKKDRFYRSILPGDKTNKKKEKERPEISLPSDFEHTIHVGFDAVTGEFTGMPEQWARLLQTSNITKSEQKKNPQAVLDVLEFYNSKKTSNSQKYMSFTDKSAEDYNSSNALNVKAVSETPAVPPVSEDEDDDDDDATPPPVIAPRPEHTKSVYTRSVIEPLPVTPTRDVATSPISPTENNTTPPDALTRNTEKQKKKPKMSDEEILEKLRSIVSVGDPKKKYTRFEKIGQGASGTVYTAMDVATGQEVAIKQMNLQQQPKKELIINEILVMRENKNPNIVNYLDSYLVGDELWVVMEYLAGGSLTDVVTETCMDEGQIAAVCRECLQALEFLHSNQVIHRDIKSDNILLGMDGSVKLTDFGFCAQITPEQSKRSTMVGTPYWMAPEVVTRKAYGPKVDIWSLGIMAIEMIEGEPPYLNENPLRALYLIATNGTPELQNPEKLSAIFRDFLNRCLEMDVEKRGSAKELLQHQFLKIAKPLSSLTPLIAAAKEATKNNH

[12] = target: Rho-associated protein kinase 2 (Homo sapiens) (UniProt O75116); assay: Inhibition of ROCK2 (unknown origin) assessed as remaining activity at 10 uM by high-throughput assay relative to control
[13] = target: Tyrosine-protein kinase BTK (Homo sapiens) (UniProt Q06187); assay: Inhibition of BTK (unknown origin) assessed as remaining activity at 10 uM by high-throughput assay relative to control
[14] = target: Glycogen synthase kinase-3 beta (Homo sapiens) (UniProt P49841); assay: Inhibition of GSK3B (unknown origin) assessed as remaining activity at 10 uM by high-throughput assay relative to control
[15] = target: cAMP-dependent protein kinase catalytic subunit alpha (Homo sapiens) (UniProt P17612); assay: Inhibition of PKAC-alpha (unknown origin) assessed as remaining activity at 10 uM by high-throughput assay relative to control
[16] = target: MAP kinase-interacting serine/threonine-protein kinase 2 (Homo sapiens) (UniProt Q9HBH9); assay: Inhibition of MKNK2 (unknown origin) assessed as remaining activity at 10 uM by high-throughput assay relative to control
[17] = target: Tyrosine-protein kinase ABL1 (Homo sapiens) (UniProt P00519); assay: Inhibition of ABL1 phosphorylation (unknown origin) assessed as remaining activity at 10 uM by high-throughput assay relative to control
[18] = target: Non-receptor tyrosine-protein kinase TYK2 (Homo sapiens) (UniProt P29597); assay: Inhibition of TYK2 JH1 catalytic domain (unknown origin) assessed as remaining activity at 10 uM by high-throughput assay relative to control
[19] = target: MAP/microtubule affinity-regulating kinase 3 (Homo sapiens) (UniProt P27448); assay: Inhibition of MARK3 (unknown origin) assessed as remaining activity at 10 uM by high-throughput assay relative to control
Sequence of MAP/microtubule affinity-regulating kinase 3 (Homo sapiens) (P27448 whole entry, looked up): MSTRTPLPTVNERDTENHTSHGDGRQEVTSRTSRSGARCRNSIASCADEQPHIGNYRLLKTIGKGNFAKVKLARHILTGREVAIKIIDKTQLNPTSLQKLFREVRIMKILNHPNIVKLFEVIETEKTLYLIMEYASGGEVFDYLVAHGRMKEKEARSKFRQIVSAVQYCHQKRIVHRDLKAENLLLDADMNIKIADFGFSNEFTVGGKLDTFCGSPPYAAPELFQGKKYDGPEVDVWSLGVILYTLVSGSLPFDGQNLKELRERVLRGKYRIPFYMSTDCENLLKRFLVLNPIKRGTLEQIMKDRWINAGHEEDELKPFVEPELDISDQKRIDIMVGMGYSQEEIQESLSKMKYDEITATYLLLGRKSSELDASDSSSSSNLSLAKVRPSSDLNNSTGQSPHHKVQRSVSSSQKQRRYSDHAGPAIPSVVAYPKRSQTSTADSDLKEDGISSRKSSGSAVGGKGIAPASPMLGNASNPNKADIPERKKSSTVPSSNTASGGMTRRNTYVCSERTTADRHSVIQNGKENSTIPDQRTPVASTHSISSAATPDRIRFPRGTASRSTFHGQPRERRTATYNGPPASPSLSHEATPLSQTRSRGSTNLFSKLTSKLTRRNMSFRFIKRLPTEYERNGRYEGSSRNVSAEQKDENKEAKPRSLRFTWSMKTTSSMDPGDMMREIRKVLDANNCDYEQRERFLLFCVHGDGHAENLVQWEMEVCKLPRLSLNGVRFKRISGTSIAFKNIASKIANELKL

[20] = target: Tyrosine-protein kinase ZAP-70 (Homo sapiens) (UniProt P43403); assay: Inhibition of ZAP70 (unknown origin) assessed as remaining activity at 10 uM by high-throughput assay relative to control
[21] = target: Serine/threonine-protein kinase PAK 2 (Homo sapiens) (UniProt Q13177); assay: Inhibition of PAK2 (unknown origin) assessed as remaining activity at 10 uM by high-throughput assay relative to control
[22] = target: Mitogen-activated protein kinase 11 (Homo sapiens) (UniProt Q15759); assay: Inhibition of p38-beta (unknown origin) assessed as remaining activity at 10 uM by high-throughput assay relative to control
[23] = target: Serine/threonine-protein kinase PLK3 (Homo sapiens, UniProt Q9H4B4); assay: Inhibition of PLK3 (unknown origin) by radiometric analysis in presence of [gamma-33P]-ATP
Sequence of Serine/threonine-protein kinase PLK3 (Q9H4B4 whole entry): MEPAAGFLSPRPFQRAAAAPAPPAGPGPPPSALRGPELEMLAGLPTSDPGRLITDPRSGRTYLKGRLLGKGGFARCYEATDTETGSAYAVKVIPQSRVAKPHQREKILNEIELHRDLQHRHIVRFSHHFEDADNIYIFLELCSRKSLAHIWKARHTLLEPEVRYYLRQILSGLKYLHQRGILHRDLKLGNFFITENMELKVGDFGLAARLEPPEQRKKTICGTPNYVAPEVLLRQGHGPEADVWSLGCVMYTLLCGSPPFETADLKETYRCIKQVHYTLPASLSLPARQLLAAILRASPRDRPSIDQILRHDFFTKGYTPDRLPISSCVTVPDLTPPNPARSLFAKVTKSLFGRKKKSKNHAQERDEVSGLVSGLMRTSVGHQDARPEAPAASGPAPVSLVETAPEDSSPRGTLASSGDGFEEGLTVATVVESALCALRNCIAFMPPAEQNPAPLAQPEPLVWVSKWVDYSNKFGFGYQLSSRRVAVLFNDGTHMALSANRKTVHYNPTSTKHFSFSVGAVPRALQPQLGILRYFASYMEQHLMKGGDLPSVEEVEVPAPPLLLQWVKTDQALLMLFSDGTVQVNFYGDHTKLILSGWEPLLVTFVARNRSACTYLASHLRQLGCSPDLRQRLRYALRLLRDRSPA

[24] = target: Mitogen-activated protein kinase 10 (Homo sapiens) (UniProt P53779); assay: Inhibition of JNK3 (unknown origin) assessed as remaining activity at 10 uM by high-throughput assay relative to control
Sequence of Mitogen-activated protein kinase 10 (Homo sapiens) (P53779 whole entry): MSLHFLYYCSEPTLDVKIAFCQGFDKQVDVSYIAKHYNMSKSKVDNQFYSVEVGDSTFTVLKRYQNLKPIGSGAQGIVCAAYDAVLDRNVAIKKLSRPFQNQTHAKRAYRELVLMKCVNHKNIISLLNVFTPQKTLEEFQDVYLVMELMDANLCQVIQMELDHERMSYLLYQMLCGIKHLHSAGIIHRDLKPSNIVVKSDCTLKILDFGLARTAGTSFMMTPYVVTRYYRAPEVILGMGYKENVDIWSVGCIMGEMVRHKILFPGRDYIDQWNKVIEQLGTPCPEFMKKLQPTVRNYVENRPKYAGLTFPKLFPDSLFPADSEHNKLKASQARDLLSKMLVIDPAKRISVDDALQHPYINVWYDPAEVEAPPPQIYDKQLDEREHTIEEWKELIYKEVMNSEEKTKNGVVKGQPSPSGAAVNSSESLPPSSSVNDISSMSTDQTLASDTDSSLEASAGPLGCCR

[25] = target: Mast/stem cell growth factor receptor Kit (Homo sapiens) (UniProt P10721); assay: Inhibition of KIT (unknown origin) assessed as remaining activity at 10 uM by high-throughput assay relative to control
[26] = system: Epidermal growth factor receptor (Homo sapiens), P00533 [L858R]; assay: Inhibition of EGFR L858R mutant (unknown origin) assessed as remaining activity at 10 uM by high-throughput assay relative to control; assay type: protein assay
[27] = system: Tyrosine-protein kinase ABL1 (Homo sapiens), P00519 [E255K]; assay: Inhibition of ABL1 E255K mutant phosphorylation (unknown origin) assessed as remaining activity at 10 uM by high-throughput assay relative to control
[28] = system: Tyrosine-protein kinase ABL1 (Homo sapiens), P00519 [T315I]; assay: Inhibition of ABL1 T315I mutant phosphorylation (unknown origin) assessed as remaining activity at 10 uM by high-throughput assay relative to control
[29] = target: Mitogen-activated protein kinase kinase kinase 4 (Homo sapiens) (UniProt Q9Y6R4); assay: Inhibition of MAP3K4 (unknown origin) assessed as remaining activity at 10 uM by high-throughput assay relative to control
[30] = target: Serine/threonine-protein kinase pim-3 (Homo sapiens) (UniProt Q86V86); assay: Inhibition of PIM3 (unknown origin) assessed as remaining activity at 10 uM by high-throughput assay relative to control
[31] = target: Dual specificity mitogen-activated protein kinase kinase 2 (Homo sapiens) (UniProt P36507); assay: Inhibition of MEK2 (unknown origin) assessed as remaining activity at 10 uM by high-throughput assay relative to control

Sequence of Angiopoietin-1 receptor (Homo sapiens) (Q02763 whole entry): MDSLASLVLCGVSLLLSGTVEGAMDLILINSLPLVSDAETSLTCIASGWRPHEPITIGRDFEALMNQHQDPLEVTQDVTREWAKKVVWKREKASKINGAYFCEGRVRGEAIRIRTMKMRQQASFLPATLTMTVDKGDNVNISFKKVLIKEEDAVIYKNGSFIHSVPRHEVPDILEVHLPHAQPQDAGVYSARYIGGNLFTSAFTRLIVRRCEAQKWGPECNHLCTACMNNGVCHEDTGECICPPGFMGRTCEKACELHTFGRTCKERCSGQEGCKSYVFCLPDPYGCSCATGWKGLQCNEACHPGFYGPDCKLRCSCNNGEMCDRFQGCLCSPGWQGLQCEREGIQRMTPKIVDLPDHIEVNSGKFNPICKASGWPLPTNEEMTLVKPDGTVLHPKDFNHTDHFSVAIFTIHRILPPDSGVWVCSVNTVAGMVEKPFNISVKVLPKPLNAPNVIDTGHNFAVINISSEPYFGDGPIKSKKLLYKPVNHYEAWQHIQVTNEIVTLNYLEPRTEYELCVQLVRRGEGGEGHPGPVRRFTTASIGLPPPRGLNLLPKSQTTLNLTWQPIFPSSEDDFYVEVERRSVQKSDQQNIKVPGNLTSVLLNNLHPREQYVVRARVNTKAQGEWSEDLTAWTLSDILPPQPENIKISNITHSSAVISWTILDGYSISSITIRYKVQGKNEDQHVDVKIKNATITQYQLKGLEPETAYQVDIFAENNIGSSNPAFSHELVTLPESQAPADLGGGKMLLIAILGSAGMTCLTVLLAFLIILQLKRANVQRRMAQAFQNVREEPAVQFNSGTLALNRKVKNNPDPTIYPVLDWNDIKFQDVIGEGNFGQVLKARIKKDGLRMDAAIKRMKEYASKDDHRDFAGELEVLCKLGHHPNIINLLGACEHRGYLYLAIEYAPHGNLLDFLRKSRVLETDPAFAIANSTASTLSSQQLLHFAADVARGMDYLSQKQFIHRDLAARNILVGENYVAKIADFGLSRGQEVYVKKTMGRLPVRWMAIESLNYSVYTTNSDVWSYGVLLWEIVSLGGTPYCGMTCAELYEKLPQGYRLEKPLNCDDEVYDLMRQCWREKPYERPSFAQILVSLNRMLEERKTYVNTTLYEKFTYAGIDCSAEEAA
Sequence of Inhibitor of nuclear factor kappa-B kinase subunit alpha (Homo sapiens) (O15111 whole entry): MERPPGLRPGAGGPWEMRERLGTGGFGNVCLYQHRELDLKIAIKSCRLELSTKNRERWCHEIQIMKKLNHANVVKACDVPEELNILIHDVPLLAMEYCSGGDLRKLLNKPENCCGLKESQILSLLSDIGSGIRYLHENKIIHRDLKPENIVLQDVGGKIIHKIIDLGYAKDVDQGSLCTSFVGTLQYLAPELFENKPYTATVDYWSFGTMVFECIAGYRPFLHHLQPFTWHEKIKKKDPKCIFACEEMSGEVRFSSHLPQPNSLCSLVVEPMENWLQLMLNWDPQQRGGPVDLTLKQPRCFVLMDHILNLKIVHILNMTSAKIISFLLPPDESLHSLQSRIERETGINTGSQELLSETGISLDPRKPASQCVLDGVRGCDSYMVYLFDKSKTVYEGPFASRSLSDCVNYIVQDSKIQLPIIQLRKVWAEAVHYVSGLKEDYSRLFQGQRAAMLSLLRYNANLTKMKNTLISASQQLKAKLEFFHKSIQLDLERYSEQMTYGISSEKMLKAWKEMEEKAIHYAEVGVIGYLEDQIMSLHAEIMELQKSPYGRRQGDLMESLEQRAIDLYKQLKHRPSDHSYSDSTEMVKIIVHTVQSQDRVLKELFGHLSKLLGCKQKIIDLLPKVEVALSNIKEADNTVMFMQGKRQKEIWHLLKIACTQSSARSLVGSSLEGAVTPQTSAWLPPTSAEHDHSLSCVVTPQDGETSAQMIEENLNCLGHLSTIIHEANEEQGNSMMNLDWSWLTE

`O=C1c2ccccc2-c2c1oc1ccccc1c2=O` gave an Activity [1] of 74%, an Activity [2] of 65% and an Activity [3] of 82%. The Activity [4] was 92%, the Activity [5] was 99% and the Activity [6] was 77%. For the same molecule, the Activity [7] was 66%, the Activity [8] was 52% and the Activity [9] was 78%. The Activity [10] was 82%, the Activity [11] was 93% and the Activity [12] was 79%. For the same molecule, the Activity [13] was 76%, the Activity [14] was 77% and the Activity [15] was 92%. It also gave an Activity [16] of 59%, an Activity [17] of 98% and an Activity [18] of 44%. For the same molecule, the Activity [19] was 90%, the Activity [20] was 77% and the Activity [21] was 82%. For the same molecule, the Activity [22] was 79%, the IC50 [23] was 8.97 µM and the Activity [24] was 33%. It also gave an Activity [25] of 38%, an Activity [26] of 90% and an Activity [27] of 93%. For the same molecule, the Activity [28] was 61%, the Activity [29] was 91% and the Activity [30] was 94%. The Activity [31] was 71%.

From ChEMBL document CHEMBL3627674, “Discovery of wrightiadione as a novel template for the TrkA kinase inhibitors” (Bioorg Med Chem Lett, 2015)
